Among the data in ChEMBL document CHEMBL1129201, “Synthesis and biological activity of 4-azido- and 4-trifluoracetamido-3-chloro-3-deamino-4-deoxydaunorubicin” (Bioorg Med Chem Lett, 1996) are RF and IC50 values, retold here.

Test [1] in a line: Resistant Factor against MDR cell lines. Value expressed as ratio of IC50 on the resistant cell and on the corresponding sensitive cells. The test is classed as functional.
The test system of another test is KB 3-1. Put plainly: In vitro cytotoxicity using human epidermoid carcinoma (KB-3-1) cells. The test is classed as functional, cell-based.
The next test deals with L1210. Put plainly: In vitro cytotoxicity using murine leukemia L1210 cells from american type culture collection. The test is classed as functional, cell-based. The note with it: Mus musculus.
Another test deals with KB. Put plainly: In vitro cytotoxicity using human epidermoid carcinoma (KB-A1) cells. The test is classed as functional, cell-based.

As to `COc1cccc2c1C(=O)c1c(O)c3c(c(O)c1C2=O)C[C@@](O)(C(C)=O)C[C@@H]3OC1CC(Cl)C(N=[N+]=[N-])C(C)O1` (stereo partly specified), the RF in test [1] turned out to be 1.7. The results for the IC50 with KB 3-1, in the test on L1210 and in the test with KB were 1.61 µM, 1.37 µM and 2.76 µM, respectively.

Regarding `COc1cccc2c1C(=O)c1c(O)c3c(c(O)c1C2=O)C[C@@](O)(C(C)=O)C[C@@H]3OC1CC(Cl)C(NC(=O)C(F)(F)F)C(C)O1` (stereo partly specified), in test [1], the RF is 6.9. In addition, the IC50 (as a rule, the concentration needed to halve the response being measured) came out at 0.55 µM in the test with KB 3-1, 0.5 µM in the test with L1210 and 3.79 µM in the test with KB.

Turning to `COc1cccc2c1C(=O)c1c(O)c3c(c(O)c1C2=O)C[C@@](O)(C(C)=O)C[C@@H]3O[C@H]1C[C@H](N)[C@H](O)[C@H](C)O1` [DAUNORUBICIN], the RF in test [1] is recorded as 295.7. Besides, the IC50 in the test with KB 3-1 came out at 0.007 µM; in the test on L1210, 0.033 µM; with KB, 2.07 µM.

Take `COc1cccc2c1C(=O)c1c(O)c3c(c(O)c1C2=O)C[C@@](O)(C(=O)CO)C[C@@H]3O[C@H]1C[C@H](N)[C@H](O)[C@H](C)O1` [DOXORUBICIN]: the RF in test [1] came to 333.8. The IC50 turned out to be 0.021 µM in the test with KB 3-1, 0.033 µM with L1210 and 7.01 µM with KB.
